Results on one compound are retold here after patent EP4717275A1, “ANTI-LUNG CANCER COMBINED DRUG AND USE THEREOF” (Gunagdong Yinzhu Pharmaceutical Technology Co., Ltd, priority 2023, dated 2024).

One series has as its system NCI-H2228 cell. Briefly: CCK8 proliferation assay with combination index analysis. The conditions noted are these: CAI alone. Format: cell-based, human. On the procedure: CCK8 method was used to evaluate the effect of the drugs towards proliferation of lung cancer cell line (NCI-H2228 cell). The cellular viability with different concentration of drug was assayed and the 50% inhibitory concentration was calculated.
Emerge NCI-H2228 cells (purchased from American Type Culture Collection (ATCC, Manassas, VA, USA)) from liquid nitrogen and thaw in a 37°C water bath. After thawing, culture cells in 1640 medium.
When cell density reached 90% confluence in culture medium, cells were digested with 0.25% trypsin and resuspended. After cell growth stabilized, cells in the logarithmic growth phase were harvested and counted using a cell counter and it was ensured that viability exceeded 85% for all cell lines.
Adjust cell concentration by diluting with culture medium. Add 100 µL of cell suspension to a 96-well plate to achieve a density of 3000 cells/well. Add 100 µL of PBS buffer to the wells around the cell-seeded wells.
Incubate the 96-well plate at 37°C, 5% CO2, and 95% humidity overnight.
Remove the cell culture plate from the incubator, aspirate the culture medium, and add the prepared drug-containing medium. Incubate at 37°C, 5% CO2, and 95% humidity for 72 hours.
Add 10 µL of CCK-8 solution to each well of the 96-well plate. Incubate the plate in the cell culture incubator for 1.5 hours. Measure the absorbance at 450 nm using a microplate reader.
Analyze data using GraphPad Prism 5.0 software. Fit the data using nonlinear S-curve regression to generate a dose-response curve and calculate the IC50 value. [formula]
The analysis of the combination index of the compound was performed using the median effect principle. The formula for the combination index of two compounds is: CI = (D)1/(Dx)1 + (D)2/(Dx)2 [formula]
Where: • (D)1---- The concentration of Compound 1 when compound 1 was used with another compound and the effect X was generated; • (D)2---- The concentration of Compound 2 when compound 2 was used with another compound and the effect X was generated; • (Dx)1---- The concentration of Compound 1 when compound 1 was used alone and the effect X was generated; • (Dx)2---- The concentration of Compound 2 when compound 2 was used alone and the effect X was generated.
The CI value enables quantitative assessment of the nature and strength of interactions between different compounds (Table 2). Interaction strength is measured using the weighted average CI (CIwt), calculated by the formula: CIwt = (CI50+2CI75+3CI90+4CI95)/10 [formula]
Where: • CI50 ---- CI value at EC50 (concentration achieving 50% effect) • CI75, CI90, and CI95 follow the same principle, representing the CI values at EC75, EC90, and EC95, respectively.
Evaluation of the combination effect: CI value is used to evaluate the combination effect, and the judgment method is shown in Table 7. Table 7 Judgment criteria of the results
On the technique in general: Formazan colour is commonly taken as a measure of viable cells.

Series [1] is classed as in vivo. The conditions noted are these: dead/total animals at Day 21; NCI-H1975 study; PO, QD×21. Here is the method: (§1) BALB/c Nude mice, female, 8-10 weeks old, 18-20g. The variation of the body weight is ±20% around average body weight. 80 mice were inoculated and 60 mice were grouped.
(§2) The grouping day was designated as Day 0, and administration commenced according to animal body weight.
Animal body weight and tumor volume were measured twice weekly throughout the experiment. Tumor length and width were measured using a digital caliper, with tumor volume estimated from these measurements.
Clinical observations were recorded daily to assess overall health status, weight abnormalities, behavioral changes, and other treatment-related adverse reactions.
In accordance with animal welfare regulations, animals meeting any of the following criteria during the study were removed from the experimental group and euthanized: 1. Body weight loss exceeding 20% compared to Day 0 (BWL ≥ 20%); 2. Severe adverse reactions such as blindness or paralysis; 3. Tumor volume exceeding 2000 mm^3; 4.
The animal body weight change rate (%BWC) is calculated as: (BWt - BW0) / BW0 × 100%, where BWt is the animal body weight at each measurement and BW0 is the animal body weight at grouping.
According to China's NMPA Technical Guidance Principles for Non-clinical Studies of Cytotoxic Antineoplastic Drugs (November 2006), %T/CRTV ≤ 40% and statistically significant P < 0.05 indicate efficacy. Drug-related animal mortality exceeding 20% indicates severe toxicity at that dose.
All experimental data in this study are expressed as Mean ± SEM.

Series [2] in a line: Animal body weight, fatality and toxicity observation in the NCI-H2228 xenograft study. The series is classed as in vivo, BALB/c Nude mice. The conditions noted are these: dead/total animals at Day 21; NCI-H2228 study; PO, QD×21.
Description: as §1, §2
The same as the therapeutic effect evaluation experiments for Examples 1-2 and Comparative Examples 1-3.

“And” between values parts separate entries of the source, which are not always exact repeats. Identical values can stand only once. Like-named read-outs stand apart in the source and are kept apart here.

Take `NC(=O)c1nnn(Cc2cc(Cl)c(C(=O)c3ccc(Cl)cc3)c(Cl)c2)c1N` [CAI, 5-Amino-1-[3,5-dichloro-4-(4-chlorobenzoyl chloride)benzyl]-1H-1,2,3-triazole-4-benzamide]: the IC50 was 22.9 µM and 23 µM in the series with NCI-H2228 cell (single plates 1-3, 72 hours, read-out: IC50 (CAI)); 22.8 µM in the series on NCI-H2228 cell (Homo sapiens, NCI-H2228, 72 h, average of 3 plates, read-out: IC50 (CAI)); 22.4 µM with NCI-H2228 cell (Homo sapiens, NCI-H2228, 72 h, single plates 1-3, read-out: IC50 (CAI)). Besides, the Fatality in series [1] and in series [2] was 0/10 (Day 21) each time.

What is called IC50 is the point on the concentration scale where inhibition reaches its midpoint.
